Test results reported in ChEMBL document CHEMBL4177697, “N-Me-trichodermamide B isolated from Penicillium janthinellum, with antioxidant properties through Nrf2-mediated signaling pathway” (Bioorg Med Chem, 2017).
One block for each molecule: values may come before it. Active and inactive are the calls of the source. The calls are words filed in the database; no cut-off is given here.

Columns and labels:
[1] = molecular target: T1, Nuclear factor erythroid 2-related factor 2 (Homo sapiens) (UniProt Q16236); test: Activation of Nrf2 in human HaCaT cells assessed as upregulation of HO-1 protein expression at 20 uM after 12 hrs in presence of MAPK p38 inhibitor SB239063 by Western blot analysis; assay type: cell-based
T1 sequence (whole entry): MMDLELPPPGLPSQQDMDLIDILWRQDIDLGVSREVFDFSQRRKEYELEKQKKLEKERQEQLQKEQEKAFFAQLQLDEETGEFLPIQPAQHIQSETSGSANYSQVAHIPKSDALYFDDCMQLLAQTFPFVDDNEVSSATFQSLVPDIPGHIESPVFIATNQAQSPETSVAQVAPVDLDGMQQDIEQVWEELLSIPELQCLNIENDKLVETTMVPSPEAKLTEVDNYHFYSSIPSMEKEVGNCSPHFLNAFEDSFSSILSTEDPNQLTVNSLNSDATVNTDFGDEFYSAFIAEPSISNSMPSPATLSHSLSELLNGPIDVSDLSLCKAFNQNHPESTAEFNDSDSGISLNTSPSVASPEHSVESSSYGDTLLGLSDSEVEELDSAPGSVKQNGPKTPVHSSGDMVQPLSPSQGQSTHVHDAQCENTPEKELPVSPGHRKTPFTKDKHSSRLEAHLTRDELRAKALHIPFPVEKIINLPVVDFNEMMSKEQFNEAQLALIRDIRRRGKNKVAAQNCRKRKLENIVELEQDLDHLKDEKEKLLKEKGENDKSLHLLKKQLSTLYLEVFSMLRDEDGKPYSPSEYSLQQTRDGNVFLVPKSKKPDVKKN

[2] = molecular target: T2, MAP kinase p38 (Homo sapiens) (UniProt O15264+Q15759+Q16539+P53778); test: Activation of MAPK p38 in human HaCaT cells assessed as upregulation of Nrf2 mRNA expression at 20 uM measured up to 6 hrs RT-qPCR analysis; assay type: cell-based
[3] = molecular target: T2, MAP kinase p38 (Homo sapiens); test: Activation of MAPK p38 in human HaCaT cells assessed as upregulation of Nrf2 mRNA expression measured up to 6 hrs RT-qPCR analysis; assay type: cell-based
[4] = molecular target: T2, MAP kinase p38 (Homo sapiens); test: Activation of MAPK p38 in human HaCaT cells assessed as nuclear translocation of Nrf2 measured after 6 hrs by Western blot analysis; assay type: cell-based
[5] = molecular target: T2, MAP kinase p38 (Homo sapiens); test: Activation of MAPK p38 in human HaCaT cells assessed as upregulation of Nrf2 protein expression in nucleus at 20 uM after 6 hrs in presence of MAPK p38 inhibitor SB239063 by Western blot analysis; assay type: cell-based
[6] = molecular target: T2, MAP kinase p38 (Homo sapiens); test: Activation of MAPK p38 in human HaCaT cells assessed as nuclear translocation of Nrf2 at 20 uM after 6 hrs by DAPI staining-based immunofluorescence microscopic method; assay type: cell-based
[7] = molecular target: T1, Nuclear factor erythroid 2-related factor 2 (Homo sapiens); test: Activation of Nrf2 in human HaCaT cells assessed as increase in HO-1 expression level at 20 uM by Western blot analysis; assay type: cell-based; settings: TDE = time-dependent effect
[8] = molecular target: T2, MAP kinase p38 (Homo sapiens); test: Induction of MAPK p38 phosphorylation in human HaCaT cells at 20 uM after 2 hrs in presence of MAPK p38 inhibitor SB239063 by Western blot analysis; assay type: cell-based
HepG2 = test: Cytotoxicity against human HepG2 cells at 10 uM; assay type: functional, cell-based
[9] = molecular target: T1, Nuclear factor erythroid 2-related factor 2 (Homo sapiens); test: Activation of Nrf2 in human HaCaT cells assessed as increase in HO-1 mRNA expression after 12 hrs by RT-qPCR analysis; assay type: cell-based
PC-9 = test: Cytotoxicity against human PC9 cells at 10 uM; assay type: functional, cell-based
A549 = test: Cytotoxicity against human A549 cells at 10 uM; assay type: functional, cell-based
HaCaT [10] = test: Upregulation of Nrf2 protein expression in human HaCaT cells transfected with Nrf2-siRNA at 20 uM after 6 hrs by Western blot analysis; assay type: functional, cell-based
HaCaT [11] = test: Cytotoxicity against human HaCaT cells assessed as reduction in cell viability at 5 to 20 uM after 24 to 48 hrs by WST-8 assay; assay type: cell-based
HaCaT [12] = test: Upregulation of HO-1 protein expression in human HaCaT cells transfected with Nrf2-siRNA at 20 uM after 6 hrs by Western blot analysis; assay type: functional, cell-based
[13] = molecular target: T2, MAP kinase p38 (Homo sapiens); test: Induction of MAPK p38 phosphorylation in human HaCaT cells at 20 uM up to 6 hrs by Western blot analysis; assay type: cell-based
[14] = molecular target: T2, MAP kinase p38 (Homo sapiens); test: Activation of MAPK p38 in human HaCaT cells assessed as nuclear translocation of Nrf2 at 10 uM measured after 6 hrs Western blot analysis; assay type: cell-based
HaCaT [15] = test: Induction of ARE promoter activity in human HaCaT cells transfected with Nrf2-siRNA at 5 to 20 uM after 6 hrs by luciferase reporter gene assay; assay type: functional, cell-based
[16] = molecular target: T1, Nuclear factor erythroid 2-related factor 2 (Homo sapiens); test: Activation of Nrf2 in human HaCaT cells assessed as increase in HO-1 expression level after 12 hrs by Western blot analysis; assay type: cell-based
[17] = molecular target: T1, Nuclear factor erythroid 2-related factor 2 (Homo sapiens); test: Activation of Nrf2 in human HaCaT cells transfected with ARE-luciferase containing ARE consensus sequence assessed as Nrf2 binding to ARE at 20 uM after 6 hrs by luciferase reporter gene assay; assay type: cell-based
HaCaT [18] = test: Cytoprotective activity against H2O2-induced cell damage in human HaCaT cells assessed as cell survival preincubated for 20 hrs followed by H2O2 addition measured after 4 hrs by WST-8 assay; assay type: functional, cell-based
[19] = molecular target: T1, Nuclear factor erythroid 2-related factor 2 (Homo sapiens); test: Activation of Nrf2 in human HaCaT cells assessed as increase in HO-1 mRNA expression at 20 uM by Western blot analysis; assay type: cell-based; settings: TDE = time-dependent effect

Activity [1]: inactive | Activity [2]: Active | Activity [3]: Dose-dependent effect | Activity [4]: Dose-dependent effect | Activity [5]: inactive | Activity [6]: Active | Activity [7]: Tde | Activity [8]: inactive | Activity [9]: Dose-dependent effect | Activity [13]: Active | Activity [14]: Active | Activity [16]: Dose-dependent effect | Activity [17]: Active | Activity [19]: Tde
SMILES: COc1ccc2cc(N(C)C(=O)C3=NO[C@H]4[C@H](O)C=C[C@@H](Cl)[C@@]4(O)C3)c(=O)oc2c1OC
Activity (HepG2): Active | Activity (PC-9): Active | Activity (A549): Active | Activity (HaCaT [10]): inactive | Activity (HaCaT [11]): Non-Toxic | Activity (HaCaT [12]): inactive | Activity (HaCaT [15]): inactive | Activity (HaCaT [18]): Dose-dependent effect

SMILES: COc1ccc2cc(NC(=O)C3=NO[C@H]4[C@H](O)C=C[C@@H](Cl)[C@@]4(O)C3)c(=O)oc2c1OC
Activity (HepG2): Active | Activity (PC-9): Active | Activity (A549): Active
